Experiments:
[1] = system: intracellular amastigotes of Leishmania panamensis (MHOM/CO/87/UA140-EGFP strain); experiment: In vitro antileishmanial activity on intracellular amastigotes (GFP, flow cytometry); assay type: cell-based; settings: for EC50: intracellular amastigotes of L. panamensis in U-937 cells, 72 h, mean ± SD; for SI (index of selectivity, IS = LC50/EC50): LC50 U-937 / EC50 L. panamensis amastigotes
Procedure: Antileishmanial activity of compounds was determined according to the ability of the compound to reduce the infection by L. panamensis parasites. For this, the antileishmanial activity was tested on intracellular amastigotes of L. panamensis transfected with the green fluorescent protein gene (MHOM/CO/87/UA140-EGFP strain). Briefly, U-937 human cells at a density of 3 × 10^5 cells/mL in RPMI 1640 and 0.1 μg/mL of PMA (phorbol-12-myristate-13-acetate) were dispensed on 24-wells microplate and then infected with stationary phase growing L. panamensis promastigotes in 15:1 parasites per cell ratio. Plates were incubated at 34 °C and 5% CO2 for 3 h and then cells were washed twice with phosphate buffer solution (PBS) to eliminate not internalized parasites. Fresh RPMI-1640 was added into each well (1 mL) and plates were incubated again. After 24 h of infection, the RPMI-1640 medium was replaced by fresh culture medium containing each compound at four serial dilutions (50, 12.5, 3.125 and 0.78 μg/mL) and plates were then incubated at 37 °C and 5% CO2 during 72 h, then, cells were removed from the bottom plate with 100 μL of EDTA/Trypsin (250 mg) solution. The cells were centrifuged at 1100 rpm during 10 min at 4 °C, the supernatant was discarded and cells were washed with 1 mL of cold PBS and centrifuged at 1100 rpm for 10 min at 4 °C. Cells were washed two times employing PBS, as previously, and after the last wash, the supernatant was discarded and cells were suspended in 500 μL of PBS.
Cells were analyzed by flow cytometry employing a flow cytometer (cytomics FC 500MPL, Beckman Coulter. Pasadena, CA, USA) reading at 488 nm (exciting) and 525 nm (emitting) over an argon laser and counting 10,000 events. Infected cells were determined according the events for green fluorescence (parasites). All determinations for each compound and standard drug were carried out by triplicate, in two experiments. Infected cells exposed to control drug (amphotericin B) were used as control for antileishmanial activity (positive control) while infected cells incubated in absence of any compound or drug were used as control for infection (negative control). Nonspecific fluorescence was corrected by subtracting fluorescence of unstained cells. Determinations were done by triplicate in at least two independent experiments.
Antileishmanial activity was determined according reduction of percentage of fluorescent parasites determined according to the median fluorescence intensity (MFI), obtained for each experimental condition by cytometry. The parasite values for each concentration of compound were calculated by Equation (3), where the % of parasites in the control well, corresponds to 100% of parasites. % parasites = (MFI exposed parasites/MFI unexposed parasites) × 100(3)
Then, inhibition percentage was calculated with Equation (4):% inhibition of parasites = 100 − (% parasites)(4)
Results of antileishmanial activities were expressed as the median effective concentrations (EC50) measured by Probit method.

[2] = in vitro; settings: human
Procedure: Cytotoxicity of the compounds was evaluated over human monocytes (U-937 ATCC CRL-1593.2) in exponential growing phase and, adjusted at 1 × 10^5 cells/mL in RPMI-1640 enriched with 10% fetal bovine serum (FBS). One hundred microliters of cell suspension were dispensed in each well of a 96-wells microplate and then, 100 μL of each compound or standard drug (amphotericin B) at four serial dilution concentrations (200, 50, 12.5 and 3.125 μg/mL) were added dissolved in pbs with 0.5% DMSO. Cell exposed to compounds or standard drugs were incubated 72 h at 37 °C and 5% of CO2. Cytotoxic activity of each compound was determined according to the effect on the cell viability by the MTT microenzymatic method in which 3-(4,5-dimethylthiazol-2-yl)- 2,5-diphenyltetrazolium bromide is reduced to a purple product named formazan by mitochondrial enzyme succinate dehydrogenase. Thus, 10 μL/well of MTT solution (5 mg/mL) were added to each well of exposed and unexposed cells, and plates were incubated at 37 °C, 5% CO2 during 3 h. The reaction was stopped by adding 100 μL/well of isopropanol with 50% and 10% of SDS (sodium dodecyl sulfate). The concentration of formazan was determined spectrophotometrically at 570 nm (Varioskan Flash Multimode Reader, Thermo Scientific, Waltham, MA, USA) and intensity of color (absorbance) was registered as O.D. Cells exposed to control drug (amphotericin B) were used as control for toxicity (positive control) while cell incubated in absence of any compound or drug were used as control for viability (negative control). Non-specific absorbance was corrected by subtracting absorbance (O.D) of the blank. Determinations were done by triplicate in at least two independent experiments.
Cytotoxicity was determined according to viability and mortality percentages obtained for each experimental condition (synthetized compounds, amphotericin B and culture medium). Results were expressed as the mean lethal concentrations (LC50), concentration necessary to kill 50% of cells, calculated by the parametric method of linear regression that permits doses-response analysis (Probit analysis).
Initially, viability percentages were calculated by Equation (1), where the O.D of control well, corresponds to 100% of viability. % viability = (O.D exposed cells/O.D unexposed cells) × 100(1)
Then, the percentage of cell growth inhibition was calculated using Equation (2):% inhibition = 100 − (% Viability)(2)
The toxicity was defined according to LC50 values, using the follow scale: Toxic; LC50 < 100 μM; moderately toxic; LC50 > 100 μM and <200 μM and potentially nontoxic; LC50 > 200 μM.

[3] = Leishmania panamensis, U-937, 72 h

O=c1cc(-c2ccc(Cl)cc2)sc2ccccc12 [Compound 2k, 2-(4-Chlorophenyl)-4H-thiochromen-4-one]
EC50 [1, 3]: > 73.3 µM
CC50 at 72 h [2]: > 733 µM

O=c1cc(-c2ccc(F)cc2)sc2ccccc12 [Compound 2l, 2-(4-Fluorophenyl)-4H-thiochromen-4-one]
SI (index of selectivity, IS = LC50/EC50) [1]: <6.45
EC50 [1, 3]: > 78 µM
CC50 at 72 h [2]: 503 ± 382 µM

O=c1cc(-c2ccc([N+](=O)[O-])cc2)sc2ccccc12 [Compound 2m, 2-(4-nitrophenyl)-4H-thiochromen-4-one]
EC50 [1, 3]: > 70.6 µM
CC50 at 72 h [2]: > 706 µM

CC1CC(=O)c2ccccc2S1(=O)=O (centres unmarked) [Compound 3a, 2-Methylthiochroman-4-one 1,1-dioxide]
EC50 [1, 3]: > 95.2 µM
CC50 at 72 h [2]: > 825 µM

CC1CC(=O)c2cc(F)ccc2S1(=O)=O (centres unmarked) [Compound 3b, 6-Fluoro-2-methylthiochroman-4-one 1,1-dioxide]
EC50 [1, 3]: > 87.7 µM
CC50 at 72 h [2]: > 876 µM

O=C1CCS(=O)(=O)c2ccc(F)cc21 [Compound 3c, 6-Fluorothiochroman-4-one 1,1-dioxide]
EC50 [1, 3]: > 93.5 µM
CC50 at 72 h [2]: > 934 µM

O=C1CC(c2ccccc2)S(=O)(=O)c2ccccc21 (centres unmarked) [Compound 3h, 2-Phenylthiochroman-4-one 1,1-dioxide]
EC50 [1, 3]: 217 ± 34.9 µM
CC50 at 72 h [2]: 529 ± 52.9 µM

O=C1CC(c2ccc(C(F)(F)F)cc2)S(=O)(=O)c2ccccc21 (centres unmarked) [Compound 3i, 2-(4-(Trifluoromethyl)-phenyl)-thiochroman-4-one 1,1-dioxide]
SI (index of selectivity, IS = LC50/EC50) [1]: 0.74
EC50 [1, 3]: 84.8 ± 3.23 µM
CC50 at 72 h [2]: 62.9 ± 10.3 µM

O=C1CC(c2ccc(C(F)(F)F)cc2)S(=O)(=O)c2ccc(F)cc21 (centres unmarked) [Compound 3j, 6-Fluoro-2-(4-(trifluoromethyl)-phenyl)-thiochroman-4-one 1,1-dioxide]
SI (index of selectivity, IS = LC50/EC50) [1]: >7.06
EC50 [1, 3]: 79.1 ± 8.98 µM
CC50 at 72 h [2]: > 558 µM

O=C1CC(c2ccc(Cl)cc2)S(=O)(=O)c2ccccc21 (centres unmarked) [Compound 3k, 2-(4-Chlorophenyl)-thiochroman-4-one 1,1-dioxide]
SI (index of selectivity, IS = LC50/EC50) [1]: >4.76
EC50 [1, 3]: 137.1 ± 1.29 µM
CC50 at 72 h [2]: > 652 µM

O=C1CC(c2ccc(F)cc2)S(=O)(=O)c2ccccc21 (centres unmarked) [Compound 3l, 2-(4-Fluorophenyl)thiochroman-4-one 1,1-dioxide]
EC50 [1, 3]: > 68.9 µM
CC50 at 72 h [2]: 689 µM

O=C1CC(c2ccc([N+](=O)[O-])cc2)S(=O)(=O)c2ccccc21 (centres unmarked) [Compound 3m, 2-(4-Nitrophenyl)-thiochroman-4-one 1,1-dioxide]
EC50 [1, 3]: > 63 µM
CC50 at 72 h [2]: > 630 µM

O=C1C=C(c2ccccc2)S(=O)(=O)c2ccccc21 [Compound 4h, 2-Phenyl-4H-thiochromen-4-one 1,1-dioxide]
SI (index of selectivity, IS = LC50/EC50) [1]: >97.94
EC50 [1, 3]: < 10 µM
EC50 [1]: 7.56 ± 0.33 µM
CC50 at 72 h [2]: > 740 µM

O=C1C=C(c2ccc(C(F)(F)F)cc2)S(=O)(=O)c2ccccc21 [Compound 4i, 2-(4-(Trifluoromethyl)-phenyl)-4H-thiochromen-4-one 1,1-dioxide]
SI (index of selectivity, IS = LC50/EC50) [1]: >80.97
EC50 [1, 3]: < 10 µM
EC50 [1]: 7.3 ± 1.6 µM
CC50 at 72 h [2]: > 591 µM

O=C1C=C(c2ccc(Cl)cc2)S(=O)(=O)c2ccccc21 [Compound 4k, 2-(4-Chlorophenyl)-4H-thiochromen-4-one 1,1-dioxide]
SI (index of selectivity, IS = LC50/EC50) [1]: >87.70
EC50 [1, 3]: < 10 µM
EC50 [1]: 7.47 ± 0.75 µM
CC50 at 72 h [2]: > 656 µM

O=C1C=C(c2ccc(F)cc2)S(=O)(=O)c2ccccc21 [Compound 4l, 2-(4-Fluorophenyl)-4H-thiochromen-4-one 1,1-dioxide]
EC50 [1, 3]: < 10 µM
EC50 [1]: 6.72 ± 0.16 µM
CC50 at 72 h [2]: > 694 µM

O=C1C=C(c2ccc([N+](=O)[O-])cc2)S(=O)(=O)c2ccccc21 [Compound 4m, 2-(4-Nitrophenyl)-4H-thiochromen-4-one 1,1-dioxide]
SI (index of selectivity, IS = LC50/EC50) [1]: >87.70
EC50 [1, 3]: < 10 µM
EC50 [1]: 7.23 ± 0.44 µM
CC50 at 72 h [2]: > 634 µM

— article PMC6149949, “Synthesis and Evaluation of Thiochroman-4-One Derivatives as Potential Leishmanicidal Agents” (Molecules : A Journal of Synthetic Chemistry and Natural …, 2017)
